In PMC11362383 (ACS applied materials & interfaces, 2024):
Residues, ends and D or L forms follow the SMILES beside them. *: point of attachment. StBu = CC(C)(C)S*

Key:
mice = settings: arginine-rich versus nonarginine peptides; cited from earlier work
Female Rag2−/− mice [1] = settings: mouse, in vivo, iv
Female Rag2−/− mice [2] = experiment: Assessment of kidney function; format: in vivo; settings: one week after injection, still within the reference range
Female Rag2−/− mice [3] = experiment: In vivo toxicity: animal survival after intravenous injection; settings: i.v.; all of the doses tested (0.0125-0.4 mmol/kg)
Female Rag2−/− mice [4] = settings: mouse, in vivo, iv; remark: listed apart in the source

NCCCC(=O)O [GABA]
survival of mice exposed to the peptide (mice): mice survived

CC(=O)N[C@@H](CCCNC(=N)N)C(=O)N[C@@H](CCCNC(=N)N)C(=O)N[C@@H](C)C(=O)N[C@@H](C)C(=O)N[C@@H](CC(N)=O)C(=O)N[C@@H](CSSC(C)(C)C)C(=O)N[C@@H](CCCCN)C(=O)O [R2] (Ac-RRAANC(StBu)K-OH)
liver enzyme levels (AST, ALT, ALP) in blood plasma (Female Rag2−/− mice [1]): no significant differences

CC(=O)N[C@@H](CCCNC(=N)N)C(=O)N[C@@H](CCCNC(=N)N)C(=O)N[C@@H](CCCNC(=N)N)C(=O)N[C@@H](C)C(=O)N[C@@H](C)C(=O)N[C@@H](CC(N)=O)C(=O)N[C@@H](CSSC(C)(C)C)C(=O)N[C@@H](CCCCN)C(=O)O [R3] (Ac-RRRAANC(StBu)K-OH)
creatinine levels in urine (Female Rag2−/− mice [2]; 0.1 mmol/kg i.v.): observable increase
total protein levels in urine (Female Rag2−/− mice [2]; 0.1 mmol/kg i.v.): observable increase
liver enzyme levels (AST, ALT, ALP) in blood plasma (Female Rag2−/− mice [1]): no significant differences

ACSSSPSKHCG [TD]
survival of mice exposed to the peptide (mice): mice survived

RAANCK [R1]
observable toxicity in animals (Female Rag2−/− mice [3]): did not exhibit any observable toxicity
liver enzyme levels (AST, ALT, ALP) in blood plasma (Female Rag2−/− mice [1]): no significant differences

RRRRAANCK [R4]
creatinine levels in urine (Female Rag2−/− mice [2]; 0.5 mmol/kg i.v.): observable increase
total protein levels in urine (Female Rag2−/− mice [2]; 0.5 mmol/kg i.v.): observable increase
WBC counts (Female Rag2−/− mice [4]): significant increase
platelet counts (Female Rag2−/− mice [4]): significant decrease
AST levels in blood plasma (Female Rag2−/− mice [1]): significant increase

RRRRRAANCK [R5]
WBC counts (Female Rag2−/− mice [4]): significant increase
platelet counts (Female Rag2−/− mice [4]): significant decrease
ALP levels in blood plasma (Female Rag2−/− mice [1]): increased
ALT levels in blood plasma (Female Rag2−/− mice [1]): increased
AST levels in blood plasma (Female Rag2−/− mice [1]): significant increase

RRRRRRAANCK [R6]
WBC counts (Female Rag2−/− mice [4]): significant increase
liver enzyme levels (AST, ALT, ALP) in blood plasma (Female Rag2−/− mice [1]): no significant differences
